The source of these data is patent US10226448B2, “3-(1H-pyrrolo[3,2-C]pyridin-2-yl)-1H-pyrazolo[3,4-B]pyridines and therapeutic uses thereof” (Samumed, LLC, priority 2015, dated 2019).

Holding throughout (type): cell-based
The subject of test [1] is Wnt activity (Sp5-Luc reporter, TCF/LEF binding sites) in SW480 colon carcinoma cells. As to the kind of experiment: Wnt activity screening assay: Sp5-Luc reporter gene assay in SW480 cells. The note with it: Homo sapiens; for EC50: Sp5-Luc reporter, SW480 cells, overnight incubation; for inhibition at 10 µM: SW480, read-out: percent inhibition at 10 μM. Put shortly: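 SW480 cells stably carrying a luciferase reporter under a human Sp5 promoter with eight TCF/LEF sites, plated at 4,000 cells/well in 1% FBS medium. Luminescence read with BrightGlo, normalized to DMSO-treated cells; EC50 from four-parameter variable-slope nonlinear regression.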
For orientation: Reporter assays use an easily measured gene product as a stand-in for the process of interest.

The subject of another test is SW480 colon cancer cells. Kind of test: Cell viability assay (CellTiter-Blue) in SW480 colon cancer cells. The note with it: Homo sapiens; for EC50: 96 h, SW480 cell viability, four days, CellTiter-Blue; for inhibition at 10 µM: SW480, read-out: percent inhibition at 10 μM. Put shortly:
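Fluorescence from resazurin reduced to resorufin by metabolically active cells was the read-out, taken after ~3 h with CellTiter-Blue.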
(In general: Resazurin is reduced to fluorescent resorufin, in cell work by metabolically active cells.)

Test [2] relates to LL29 cells (primary human fibroblasts derived from IPF patients), α-smooth muscle actin. As to the kind of experiment: Inhibition of the fibrotic process: αSMA staining in TGF-β1 treated primary human fibroblasts from IPF patients (LL29 cells). As to conditions: Fibroblast; for EC50: 96 h, LL29 cells, TGF-β1 20 ng/mL, 4 days, % αSMA positive cells; for inhibition at 10 µM: read-out: percent inhibition at 10 μM. In a few lines: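 IPF-patient-derived LL29 lung fibroblasts in F12 with 1% FBS, stimulated with TGF-β1 alongside compound; TGF-β1 plus DMSO wells served as controls. After 4 days, nuclei stained with 1 μM SYTOX green for 30 min at room temperature, alongside αSMA staining.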

In test [3] the test system is primary human mesenchymal stem cells (hMSCs). As to the kind of experiment: Induction of chondrogenesis in primary human mesenchymal stem cells (chondrogenic nodules, Rhodamine B / Nile Red). The note with it: 6 days; for Emax: relative to TGF-β3 (10 ng/mL) positive control, read-out: Max. Activity as % TGF-β3 activity; for EC50: concentration required to induce 50% levels of chondrogenesis vs TGF-β3, read-out: Conc (nM) of 50% TGF-β3 activity. Put shortly: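 Primary hMSCs at passage 3–6 were fixed with 4% formaldehyde and stained with 2 μg/mL Rhodamine B plus 20 μM Nile Red to image chondrogenic nodules. Nodule counts normalized to the mean of 3 DMSO wells (fold change), averaged over 3 replicate wells per concentration. TGF-β3 served as positive control; EC50, maximum activity and the dose giving maximum are reported.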

For a further test, the system named is IL-6 in THP-1 cells. Kind of test: IL-6 inhibition in LPS-stimulated THP-1 human monocyte cells (HTRF). As to conditions: for EC50: IL-6 inhibition, LPS-stimulated THP-1 cells, HTRF, 10-point dose-response starting from 10 μM. Put shortly:
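THP-1 cells were serum-reduced (1% FBS, 24 h), plated at 5000 cells/well with compound for 2 h at 37 °C, then stimulated 22 h with 500 ng/mL LPS. Secreted IL-6 was quantified by HTRF (665/620 nm ratio). Signals were normalised to DMSO, and EC50 was fitted by four-parameter nonlinear regression.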
A general note: In TR-FRET formats the signal depends on donor and acceptor labels being close together.

Where only a bound is given, the exact number is not on record here.

Turning to `O=C(Nc1cncc(-c2cnc3[nH]nc(-c4cc5c(N6CCCCC6)nccc5[nH]4)c3c2)c1)C1CC1` [Compound 188, N-(5-(3-(4-(Piperidin-1-yl)-1H-pyrrolo[3,2-c]pyridin-2-yl)-1H-pyrazolo[3,4-b]pyridin-5-yl)pyridin-3-yl)cyclopropanecarboxamide], the EC50 in test [1] was 3850 nM; in the test on SW480 colon cancer cells it was 6710 nM; in test [2], more than 10000 nM; in the test on IL-6 in THP-1 cells it was 2540 nM. Besides, the inhibition at 10 µM in test [2] was 0%. For the same compound, the Emax in test [3] came out at 42%.
`CC(C)CC(=O)Nc1cncc(-c2cnc3[nH]nc(-c4cc5c(-c6ccc(F)cc6)nccc5[nH]4)c3c2)c1` [Compound 30, N-(5-(3-(4-(4-Fluorophenyl)-1H-pyrrolo[3,2-c]pyridin-2-yl)-1H-pyrazolo[3,4-b]pyridin-5-yl)pyridin-3-yl)-3-methylbutanamide]: the EC50 in test [1] was 996 nM; with SW480 colon cancer cells, 523 nM; in test [2], 261 nM; with IL-6 in THP-1 cells, 1550 nM. Besides, the Emax in test [3] came out at 107%.
Regarding `CCNCc1cncc(-c2cnc3[nH]nc(-c4cc5c(-c6ccccc6F)nccc5[nH]4)c3c2)c1` [Compound 62, N-((5-(3-(4-(2-Fluorophenyl)-1H-pyrrolo[3,2-c]pyridin-2-yl)-1H-pyrazolo[3,4-b]pyridin-5-yl)pyridin-3-yl)methyl)ethanamine], the EC50 in test [1] came out at 1080 nM; with SW480 colon cancer cells, 923 nM; in test [2] it was 2370 nM; in the test on IL-6 in THP-1 cells, 1890 nM. Also, the Emax in test [3] is 52%.
Consider `CN1CCN(c2nccc3[nH]c(-c4n[nH]c5ncc(-c6cncc(NC(=O)C7CCCC7)c6)cc45)cc23)CC1` [Compound 246, N-(5-(3-(4-(4-Methylpiperazin-1-yl)-1H-pyrrolo[3,2-c]pyridin-2-yl)-1H-pyrazolo[3,4-b]pyridin-5-yl)pyridin-3-yl)cyclopentane carboxamide], for which the inhibition at 10 µM in test [1] was found to be 43%; in the test with SW480 colon cancer cells, 15.4%. Besides, the EC50 in test [1] is more than 10000 nM; with SW480 colon cancer cells, more than 10000 nM; in test [2], 6460 nM; with IL-6 in THP-1 cells, 2150 nM. Besides, the Emax in test [3] stood at 30%.
`c1cncc(-c2cnc3[nH]nc(-c4cc5c(N6CCCCC6)nccc5[nH]4)c3c2)c1` [Compound 172, 3-(4-(Piperidin-1-yl)-1H-pyrrolo[3,2-c]pyridin-2-yl)-5-(pyridin-3-yl)-1H-pyrazolo[3,4-b]pyridine]: the EC50 is 4020 nM in test [1]; 1160 nM with SW480 colon cancer cells; 1330 nM in test [2]; 900 nM in test [3]; 484 nM with IL-6 in THP-1 cells. Moreover, in test [3], the Emax turned out to be 169%.
Consider `c1cc2[nH]c(-c3n[nH]c4ncc(-c5cncc(CN6CCCCC6)c5)cc34)cc2cn1` [Compound 267, 5-(5-(Piperidin-1-ylmethyl)pyridin-3-yl)-3-(1H-pyrrolo[3,2-c]pyridin-2-yl)-1H-pyrazolo[3,4-b]pyridine], for which the EC50 in test [1] came out at 1540 nM; in the test with SW480 colon cancer cells, 1240 nM; in test [2], 1850 nM; in the test on IL-6 in THP-1 cells, 1560 nM. In test [3], the Emax was determined as 40%.
Take `CC(C)(C)CC(=O)Nc1cncc(-c2cnc3[nH]nc(-c4cc5c(N6CCCCC6)nccc5[nH]4)c3c2)c1` [Compound 184, 3,3-Dimethyl-N-(5-(3-(4-(piperidin-1-yl)-1H-pyrrolo[3,2-c]pyridin-2-yl)-1H-pyrazolo[3,4-b]pyridin-5-yl)pyridin-3-yl)butanamide]: the EC50 in test [1] turned out to be 1330 nM; in the test with SW480 colon cancer cells, 1430 nM; in test [2], 773 nM; with IL-6 in THP-1 cells, 2260 nM. Moreover, the Emax in test [3] was 84%.
Take `CN1CCN(c2nccc3[nH]c(-c4n[nH]c5ncc(-c6cncc(NC(=O)c7ccccc7)c6)cc45)cc23)CC1` [Compound 235, N-(5-(3-(4-(4-Methylpiperazin-1-yl)-1H-pyrrolo[3,2-c]pyridin-2-yl)-1H-pyrazolo[3,4-b]pyridin-5-yl)pyridin-3-yl)benzamide]: the EC50 in test [1] is 3240 nM; in the test with SW480 colon cancer cells, more than 10000 nM; in test [2], 891 nM; in the test with IL-6 in THP-1 cells, 6980 nM. In the test on SW480 colon cancer cells, the inhibition at 10 µM came out at 19.1%. Moreover, the Emax in test [3] stood at 63%.
Turning to `CN1CCN(c2nccc3[nH]c(-c4n[nH]c5ncc(-c6cncc(N)c6)cc45)cc23)CC1` [Compound 227, 5-(3-(4-(4-Methylpiperazin-1-yl)-1H-pyrrolo[3,2-c]pyridin-2-yl)-1H-pyrazolo[3,4-b]pyridin-5-yl)pyridin-3-amine], the inhibition at 10 µM is 28.1% in test [1], 14.4% in the test with SW480 colon cancer cells and 0% in test [2]. In addition, the EC50 in test [1] is more than 10000 nM; in the test with SW480 colon cancer cells it was more than 10000 nM; in test [2] it was more than 10000 nM; with IL-6 in THP-1 cells, 707 nM. Besides, the Emax in test [3] came out at 18%.
For the compound `CC(C)Nc1cncc(-c2cnc3[nH]nc(-c4cc5c(N6CCCCC6)nccc5[nH]4)c3c2)c1` [Compound 180, N-Isopropyl-5-(3-(4-(piperidin-1-yl)-1H-pyrrolo[3,2-c]pyridin-2-yl)-1H-pyrazolo[3,4-b]pyridin-5-yl)pyridin-3-amine], the EC50 in test [1] is 3410 nM; with SW480 colon cancer cells it was 3700 nM; in test [2], 247 nM; in the test on IL-6 in THP-1 cells, 2130 nM. In addition, the Emax in test [3] came to 34%.
In the case of `Nc1cncc(-c2cnc3[nH]nc(-c4cc5c(-c6ccncc6)nccc5[nH]4)c3c2)c1` [Compound 115, 5-(3-(4-(Pyridin-4-yl)-1H-pyrrolo[3,2-c]pyridin-2-yl)-1H-pyrazolo[3,4-b]pyridin-5-yl)pyridin-3-amine], the inhibition at 10 µM in test [1] was 9.3%; with SW480 colon cancer cells, 10.1%; in test [2], 53.8%; in the test on IL-6 in THP-1 cells (THP-1, read-out: percentage in parentheses beside EC50 >10), 9.7%. The EC50 in test [1] is more than 10000 nM; with SW480 colon cancer cells, more than 10000 nM; in test [2], more than 10000 nM; in test [3], 30 nM; with IL-6 in THP-1 cells it was more than 10000 nM. In test [3], the Emax was 53%.
For `O=C(Nc1cncc(-c2cnc3[nH]nc(-c4cc5c(-c6ccc(F)cc6)nccc5[nH]4)c3c2)c1)C1CCC1` [Compound 49, N-(5-(3-(4-(4-Fluorophenyl)-1H-pyrrolo[3,2-c]pyridin-2-yl)-1H-pyrazolo[3,4-b]pyridin-5-yl)pyridin-3-yl)cyclobutanecarboxamide], the EC50 in test [1] came out at 1170 nM; with SW480 colon cancer cells, 595 nM; in test [2] it was 360 nM; in test [3], 10 nM; in the test with IL-6 in THP-1 cells, 1480 nM. Besides, the Emax in test [3] amounted to 208%.
Consider `O=C(Nc1cncc(-c2cnc3[nH]nc(-c4cc5c(-c6ccccc6F)nccc5[nH]4)c3c2)c1)C1CC1` [Compound 76, N-(5-(3-(4-(2-Fluorophenyl)-1H-pyrrolo[3,2-c]pyridin-2-yl)-1H-pyrazolo[3,4-b]pyridin-5-yl)pyridin-3-yl)cyclopropanecarboxamide], for which the EC50 in test [1] is 321 nM; in the test with SW480 colon cancer cells, 450 nM; in test [2], 2700 nM; in test [3], 30 nM; with IL-6 in THP-1 cells, 53 nM. Also, in test [3], the Emax was 78%.
With `c1cncc(-c2cnc3[nH]nc(-c4cc5cnccc5[nH]4)c3c2)c1` [Compound 256, 5-(Pyridin-3-yl)-3-(1H-pyrrolo[3,2-c]pyridin-2-yl)-1H-pyrazolo[3,4-b]pyridine], the EC50 in test [1] came to 251 nM; in the test on SW480 colon cancer cells, 356 nM; in test [2], 200 nM; in the test on IL-6 in THP-1 cells it was 218 nM. In addition, the Emax in test [3] was 54%.
The matching figures for `CCCC(=O)Nc1cncc(-c2cnc3[nH]nc(-c4cc5cnccc5[nH]4)c3c2)c1` [Compound 269, N-(5-(3-(1H-Pyrrolo[3,2-c]pyridin-2-yl)-1H-pyrazolo[3,4-b]pyridin-5-yl)pyridin-3-yl)butyramide]: 867 nM, 3350 nM, 2260 nM, 1020 nM and 100%.
For the compound `CN1CCN(c2nccc3[nH]c(-c4n[nH]c5ncc(-c6cncc(CN7CCCCC7)c6)cc45)cc23)CC1` [Compound 239, 3-(4-(4-Methylpiperazin-1-yl)-1H-pyrrolo[3,2-c]pyridin-2-yl)-5-(5-(piperidin-1-ylmethyl)pyridin-3-yl)-1H-pyrazolo[3,4-b]pyridine], the values for the inhibition at 10 µM in test [1] and in test [2] were 55% and 28.8%, respectively. In addition, the EC50 in test [1] is more than 10000 nM; with SW480 colon cancer cells it was 3800 nM; in test [2], more than 10000 nM; in the test on IL-6 in THP-1 cells, 3280 nM. In test [3], the Emax came out at 24%.
